Tested on: not given
Settings: male, SD, in vivo
Experimental: Male SD rats (n=3/compound/route) were used for single intravenous and oral dose PK studies. Compounds were administered intravenously (infusion over 30 minutes) as a solution (Formulation: 5% DMSO: 20% Encapsine in saline; target dose 1 mg/kg) and orally as suspensions (Formulation: 1% Methyl Cellulose; target dose 5 mg/kg). After dosing, blood samples ([…]) were collected. Sampling times were the following:
0.25, 0.5 (just before end of infusion), 0.58, 0.75, 1, 1.5, 2, 3, 5, 7, and 24 hours; n=3 rats (intravenous infusion administration) 0.25, 0.5, 1, 2, 4, 6, 8, and 24 hours; n=3 rats (oral gavage administration)
All the blood samples were diluted with 25 μL of water and stored at −80° C. until analysis. Rat blood samples were analyzed for each compound using a method upon protein precipitation followed by LC-MS/MS analysis. All pharmacokinetic parameters were obtained by non-compartmental analysis of the different blood concentration-time profiles using WinNonLin Phoenix Version 6.3.

First: O=C(CCC(F)(F)F)N1CCC(c2ccnc(C(F)(F)F)c2)CC1 [Example 18, 4,4,4-trifluoro-1-(4-(2-(trifluoromethyl)pyridin-4-yl)piperidin-1-yl)butan-1-one]
Second: O=C(CCC(F)(F)F)N1CCC(c2cncc(Cl)c2)CC1 [Example 30, 1-(4-(5-chloropyridin-3-yl)piperidin-1-yl)-4,4,4-trifluorobutan-1-one]
The “F % (rat, 5 mg/kg)” value of the first is lower: 75% for the first, 77% for the second.

Tested on: M. tuberculosis H37Rv-GFP
Format: cell-based, Mycobacterium tuberculosis
Settings: read-out: EC50_H37Rv

First: O=C(CCC(F)(F)F)N1CCC(c2cnccn2)CC1 [Example 1, 4,4,4-trifluoro-1-(4-pyrazin-2-yl-1-piperidyl)butan-1-one]
Second: O=C(CCC(F)(F)F)N1CCC(c2cccnn2)CC1 [Example 19, 4,4,4-trifluoro-1-[4-(pyridazin-3-yl)piperidin-1-yl]butan-1-one]
The EC50 of the first is lower: 500 to 1000 nM for the first, 1000 to 10000 nM for the second.

`O=C(CCC(F)(F)F)N1CCC(F)(c2cccnc2)CC1` [Example 2, 4,4,4-trifluoro-1-[4-fluoro-4-(3-pyridyl)-1-piperidyl]butan-1-one] and `O=C(CCC(F)(F)F)N1CCC(F)(c2cncc(Cl)c2)CC1` [Example 29, 1-(4-(5-chloropyridin-3-yl)-4-fluoropiperidin-1-yl)-4,4,4-trifluorobutan-1-one] cannot be ordered by EC50: less than 50 nM for the first, less than 50 nM for the second.

Compared with `O=C(CCC(F)(F)F)N1CCC(c2cncc(F)c2)CC1` [Example 3, 4,4,4-trifluoro-1-[4-(5-fluoro-3-pyridyl)-1-piperidyl]butan-1-one], `O=C(CCC(F)(F)F)N1CCC(c2cncc(Cl)c2)CC1` [Example 30, 1-(4-(5-chloropyridin-3-yl)piperidin-1-yl)-4,4,4-trifluorobutan-1-one] is lower in EC50: 50 to 250 nM for the first, less than 50 nM for the second.

`O=C(CCC(F)(F)F)N1CCC(c2ccc(F)nc2)CC1` [Example 4, 4,4,4-trifluoro-1-[4-(6-fluoro-3-pyridyl)-1-piperidyl]butan-1-one] and `COc1ccc(C2CCN(C(=O)CCC(F)(F)F)CC2)cn1` [Example 10, 4,4,4-trifluoro-1-[4-(6-methoxy-3-pyridyl)-1-piperidyl]butan-1-one] fall in the same range of EC50: 50 to 250 nM for the first, 50 to 250 nM for the second.

First: O=C(CCC(F)(F)F)N1CCC(c2ccc(C(F)(F)F)nc2)CC1 [Example 5, 4,4,4-trifluoro-1-[4-[6-(trifluoromethyl)-3-pyridyl]-1-piperidyl]butan-1-one]
Second: O=C(CCC(F)(F)F)N1CCC(c2ccnc(C(F)(F)F)c2)CC1 [Example 18, 4,4,4-trifluoro-1-(4-(2-(trifluoromethyl)pyridin-4-yl)piperidin-1-yl)butan-1-one]
The EC50 of the first is higher: 500 to 1000 nM for the first, less than 50 nM for the second. The second is the more potent here.

First: O=C(CCC(F)(F)F)N1CCC(c2cc(C(F)(F)F)ccn2)CC1 [Example 6, 4,4,4-trifluoro-1-[4-[4-(trifluoromethyl)-2-pyridyl]-1-piperidyl]butan-1-one]
Second: O=C(CCC(F)(F)F)N1CCC(c2cccc(C(F)(F)F)n2)CC1 [Example 8, 4,4,4-trifluoro-1-[4-[6-(trifluoromethyl)-2-pyridyl]-1-piperidyl]butan-1-one]
The EC50 of the first is lower: less than 50 nM for the first, 50 to 250 nM for the second.

Compared with `O=C(CCC(F)(F)F)N1CCC(c2cncc(C(F)(F)F)c2)CC1` [Example 7, 4,4,4-trifluoro-1-[4-[5-(trifluoromethyl)-3-pyridyl]-1-piperidyl]butan-1-one], `O=C(CCC(F)(F)F)N1CCC(c2cncc(C(F)(F)F)n2)CC1` [Example 24, 4,4,4-trifluoro-1-(4-(6-(trifluoromethyl)pyrazin-2-yl)piperidin-1-yl)butan-1-one] is higher in EC50: less than 50 nM for the first, 50 to 250 nM for the second.

`O=C(CCC(F)(F)F)N1CCC(c2cccc(F)n2)CC1` [Example 9, 4,4,4-trifluoro-1-[4-(6-fluoro-2-pyridyl)-1-piperidyl]butan-1-one] and `O=C(CCC(F)(F)F)N1CCC(c2cccc(Cl)n2)CC1` [Example 27, 1-(4-(6-chloropyridin-2-yl)piperidin-1-yl)-4,4,4-trifluorobutan-1-one] fall in the same range of EC50: 50 to 250 nM for the first, 50 to 250 nM for the second.

`O=C(CCC(F)(F)F)N1CCC(c2cccnc2C(F)(F)F)CC1` [Example 11, 4,4,4-trifluoro-1-[4-[2-(trifluoromethyl)-3-pyridyl]-1-piperidyl]butan-1-one] and `O=C(CCC(F)(F)F)N1CCC(c2nccc(C(F)(F)F)n2)CC1` [Example 15] fall in the same range of EC50: 1000 to 10000 nM for the first, 1000 to 10000 nM for the second.

Compared with `COc1cncc(C2CCN(C(=O)CCC(F)(F)F)CC2)c1` [Example 12, 4,4,4-trifluoro-1-[4-(5-methoxy-3-pyridyl)-1-piperidyl]butan-1-one], `O=C(CCC(F)(F)F)N1CCC(c2cncnc2)CC1` [Example 16] is higher in EC50: 500 to 1000 nM for the first, 1000 to 10000 nM for the second. The first is the more potent here.

First: O=C(CCC(F)(F)F)N1CCC(c2ncc(F)cc2F)CC1 [Example 13, 1-[4-(3,5-difluoro-2-pyridyl)-1-piperidyl]-4,4,4-trifluoro-butan-1-one]
Second: O=C(CCC(F)(F)F)N1CCC(c2cnc(F)c(F)c2)CC1 [Example 23, 1-(4-(5,6-difluoropyridin-3-yl)piperidin-1-yl)-4,4,4-trifluorobutan-1-one]
The EC50 of the first is higher: 50 to 250 nM for the first, less than 50 nM for the second. The second is the more potent here.

`O=C(CCC(F)(F)F)N1CCC(c2ccc(F)nc2F)CC1` [Example 14, 1-[4-(2,6-difluoro-3-pyridyl)-1-piperidyl]-4,4,4-trifluoro-butan-1-one] and `O=C(CCC(F)(F)F)N1CCC(c2ccncc2F)CC1` [Example 26, 4,4,4-trifluoro-1-(4-(3-fluoropyridin-4-yl)piperidin-1-yl)butan-1-one] fall in the same range of EC50: 50 to 250 nM for the first, 50 to 250 nM for the second.

`O=C(CCC(F)(F)F)N1CCC(c2ccc(F)cn2)CC1` [Example 17, 4,4,4-trifluoro-1-[4-(5-fluoro-2-pyridyl)-1-piperidyl]butan-1-one] and `O=C(CCC(F)(F)F)N1CCC(c2ccnc(F)c2)CC1` [Example 20, 4,4,4-trifluoro-1-(4-(2-fluoropyridin-4-yl)piperidin-1-yl)butan-1-one] cannot be ordered by EC50: less than 50 nM for the first, less than 50 nM for the second.

First: O=C(CCC(F)(F)F)N1CCC(c2cnc(C(F)(F)F)cn2)CC1 [Example 21, 4,4,4-trifluoro-1-(4-(5-(trifluoromethyl)pyrazin-2-yl)piperidin-1-yl)butan-1-one]
Second: O=C(CCC(F)(F)F)N1CCC(c2cncc(Cl)n2)CC1 [Example 32, 1-(4-(6-chloropyrazin-2-yl)piperidin-1-yl)-4,4,4-trifluorobutan-1-one]
The EC50 of the first is higher: 500 to 1000 nM for the first, less than 50 nM for the second.

`Cc1cc(C2CCN(C(=O)CCC(F)(F)F)CC2)ccn1` [Example 22, 4,4,4-trifluoro-1-(4-(2-methylpyridin-4-yl)piperidin-1-yl)butan-1-one] and `O=C(CCC(F)(F)F)N1CCC(c2ccnc(Cl)c2)CC1` [Example 25, 1-(4-(2-chloropyridin-4-yl)piperidin-1-yl)-4,4,4-trifluorobutan-1-one] cannot be ordered by EC50: less than 50 nM for the first, less than 50 nM for the second.

First: O=C(CCC(F)(F)F)N1CCC(c2ncccn2)CC1 [Example 28, 4,4,4-trifluoro-1-[4-(pyrimidin-2-yl)piperidin-1-yl]butan-1-one]
Second: O=C(CCCC(F)(F)F)N1CCC(c2cncc(Cl)c2)CC1 [Example 31, 1-(4-(5-chloropyridin-3-yl)piperidin-1-yl)-5,5,5-trifluoropentan-1-one]
The EC50 of the first is higher: 1000 to 10000 nM for the first, 50 to 250 nM for the second.

`O=C(CCC(F)(F)F)N1CCC(F)(c2ccccn2)CC1` [Example 33, 4,4,4-trifluoro-1-(4-fluoro-4-(pyridin-2-yl)piperidin-1-yl)butan-1-one] and `O=C(CCC(F)(F)F)N1CCC(F)(c2cc(C(F)(F)F)ccn2)CC1` [Example 39, 4,4,4-trifluoro-1-[4-fluoro-4-[4-(trifluoromethyl)-2-pyridyl]-1-piperidyl]butan-1-one] fall in the same range of EC50: 50 to 250 nM for the first, 50 to 250 nM for the second.

`O=C(CCC(F)(F)F)N1CCC(F)(c2cncc(C(F)(F)F)c2)CC1` [Example 34, 4,4,4-trifluoro-1-(4-fluoro-4-(5-(trifluoromethyl)pyridin-3-yl)piperidin-1-yl)butan-1-one] and `O=C(CCC(F)(F)F)N1CCC(F)(c2ccnc(C(F)(F)F)c2)CC1` [Example 35, 4,4,4-trifluoro-1-(4-fluoro-4-(2-(trifluoromethyl)pyridin-4-yl)piperidin-1-yl)butan-1-one] cannot be ordered by EC50: less than 50 nM for the first, less than 50 nM for the second.

First: O=C(CCC(F)(F)F)N1CCC(F)(c2cncc(Cl)n2)CC1 [Example 36, 1-(4-(6-chloropyrazin-2-yl)-4-fluoropiperidin-1-yl)-4,4,4-trifluorobutan-1-one]
Second: O=C(CCC(F)(F)F)N1CCC(F)(c2ccnc(Cl)c2)CC1 [Example 41]
The EC50 of the first is higher: 50 to 250 nM for the first, less than 50 nM for the second.

First: O=C(CCC(F)(F)F)N1CCC(F)(c2ccnc(F)c2)CC1 [Example 37, 4,4,4-trifluoro-1-(4-fluoro-4-(2-fluoropyridin-4-yl)piperidin-1-yl)butan-1-one]
Second: O=C(CCC(F)(F)F)N1CCC(F)(c2ccc(F)nc2)CC1 [Example 40]
The EC50 of the first is lower: less than 50 nM for the first, 50 to 250 nM for the second. The first is the more potent here.

`O=C(CCC(F)(F)F)N1CCC(c2cncc(Cl)c2)C1` (centres unmarked) [Example 38, 1-(3-(5-chloropyridin-3-yl)pyrrolidin-1-yl)-4,4,4-trifluorobutan-1-one] showed an EC50 of less than 50 nM.

Tested on: not given
Settings: male, Swiss (Crl:CD-1(ICR)), mouse, in vivo

Compared with `O=C(CCC(F)(F)F)N1CCC(c2ccnc(C(F)(F)F)c2)CC1` [Example 18, 4,4,4-trifluoro-1-(4-(2-(trifluoromethyl)pyridin-4-yl)piperidin-1-yl)butan-1-one], `O=C(CCC(F)(F)F)N1CCC(c2cncc(Cl)c2)CC1` [Example 30, 1-(4-(5-chloropyridin-3-yl)piperidin-1-yl)-4,4,4-trifluorobutan-1-one] is lower in “Mice liver hypertrophy (%)” value: 6% for the first, 2% for the second.

Tested on: PPAR marker
Settings: male, Swiss (Crl:CD-1(ICR)), mouse

For `O=C(CCC(F)(F)F)N1CCC(c2ccnc(C(F)(F)F)c2)CC1` [Example 18, 4,4,4-trifluoro-1-(4-(2-(trifluoromethyl)pyridin-4-yl)piperidin-1-yl)butan-1-one], the “In vivo PPAR marker fold increase” value was less than 6 fold.
In the case of `O=C(CCC(F)(F)F)N1CCC(c2cncc(Cl)c2)CC1` [Example 30, 1-(4-(5-chloropyridin-3-yl)piperidin-1-yl)-4,4,4-trifluorobutan-1-one], the “In vivo PPAR marker fold increase” value is reported as less than 2 fold.
